Experimental findings from PubChem BioAssay AID1745844 (Carcinogenic Potency Database (CPDB), 2022) are described below.

The test system of this data set is rodent lifetime carcinogenesis bioassay, tumor incidence TD50. The experiment in a line: chronic cancer bioassays in animals – CPDB, compiled studies (AID 1745844).

Several values for one entry are separate records, joined by “and”; a condition that tells them apart may be missing. Equal entries are not always repeated. Activity calls are given as the source filed them. How the calls were made is not given here.

Regarding `Oc1c(Cl)cc(Cl)c(Cl)c1Cc1c(O)c(Cl)cc(Cl)c1Cl`, the carcinogen call reads like this: (mouse, strain C57BL, females, in feed, site: any site (literature study), lesion: several types, types named in the paper, dosed 104 weeks, study length 104 weeks) “negative (inactive)”; (mouse, strain C57BL, males, in feed, site: liver, lesion: one or several types, types not named, dosed 104 weeks, study length 104 weeks) “negative (inactive)”; (mouse, strain C57BL, males, in feed, site: lung, lesion: one or several types, types not named, dosed 104 weeks, study length 104 weeks) “negative (inactive)”; (mouse, strain XVII/G, females, in feed, site: liver, lesion: one or several types, types not named, dosed 104 weeks, study length 104 weeks) “negative (inactive)”; (rat, strain Fischer 344, females, in feed, site: any site (literature study), lesion: several types, types named in the paper, dosed 106 weeks, study length 106 weeks) “negative (inactive)”. Besides, the TD50 (mouse, strain C57BL, females, in feed, site: liver, lesion: hepatoma, dosed 104 weeks, study length 104 weeks) is 434 mg/kg/day (inactive); the TD50 (mouse, strain C57BL, males, in feed, site: any site (literature study), lesion: several types, types named in the paper, dosed 104 weeks, study length 104 weeks) was 900 mg/kg/day (inactive); the TD50 (mouse, strain XVII/G, females, in feed, site: any site (literature study), lesion: several types, types named in the paper, dosed 104 weeks, study length 104 weeks) is 39.4 mg/kg/day (inactive); the TD50 (mouse, strain XVII/G, females, in feed, site: lung, lesion: one or several types, types not named, dosed 104 weeks, study length 104 weeks) is 33.4 mg/kg/day (inactive); the TD50 (mouse, strain XVII/G, males, in feed, site: any site (literature study), lesion: several types, types named in the paper, dosed 104 weeks, study length 104 weeks) was 17.8 mg/kg/day (inactive); the TD50 (mouse, strain XVII/G, males, in feed, site: liver, lesion: adenoma, dosed 104 weeks, study length 104 weeks) was 450 mg/kg/day (inactive). Further, the TD50 runs as follows: (mouse, strain XVII/G, males, in feed, site: lung, lesion: one or several types, types not named, dosed 104 weeks, study length 104 weeks) 17.8 mg/kg/day (inactive); (rat, strain Fischer 344, males, in feed, site: any site (literature study), lesion: several types, types named in the paper, dosed 106 weeks, study length 106 weeks) 30.4 mg/kg/day; (rat, strain Fischer 344, males, in feed, site: subcutaneous tissue, lesion: fibrosarcoma, dosed 106 weeks, study length 106 weeks) 41.3 mg/kg/day (inactive); (rat, strain Fischer 344, males, in feed, site: tunica vaginalis, lesion: mesothelioma, NOS, dosed 106 weeks, study length 106 weeks) 57.5 mg/kg/day.

Turning to `Cc1ccc(N)c(C)c1`, the TD50 is 12.2 mg/kg/day (mouse, strain CD-1 HaM/ICR, females, in feed, site: any site (literature study), lesion: several types, types named in the paper, dosed 77 weeks, study length 90 weeks); 12.4 mg/kg/day and 13.5 mg/kg/day (mouse, strain CD-1 HaM/ICR, females, in feed, site: lung, lesion: several types, types named in the paper, dosed 77 weeks, study length 90 weeks); 646 mg/kg/day (inactive) (mouse, strain CD-1 HaM/ICR, males, in feed, site: any site (literature study), lesion: several types, types named in the paper, dosed 77 weeks, study length 90 weeks); 65.4 mg/kg/day (inactive) (mouse, strain CD-1 HaM/ICR, males, in feed, site: liver, lesion: several types, types named in the paper, dosed 77 weeks, study length 90 weeks); 16.8 mg/kg/day (inactive) (rat, strain Charles River CD (Sprague-Dawley), males, in feed, site: any site (literature study), lesion: several types, types named in the paper, dosed 77 weeks, study length 98 weeks); 260 mg/kg/day (inactive) (rat, strain Charles River CD (Sprague-Dawley), males, in feed, site: liver, lesion: several types, types named in the paper, dosed 77 weeks, study length 98 weeks). Besides, the carcinogen call by setting is: (mouse, strain CD-1 HaM/ICR, females, in feed, site: liver, lesion: several types, types named in the paper, dosed 77 weeks, study length 90 weeks) “negative (inactive)”; (mouse, strain CD-1 HaM/ICR, males, in feed, site: lung, lesion: several types, types named in the paper, dosed 77 weeks, study length 90 weeks) “negative (inactive)”.

`CCOCCc1c(-c2ccccc2)nc(N)n2ncnc12`: the TD50 is, setting by setting: (rat, strain Charles River CD (Sprague-Dawley), females, in feed, site: liver, lesion: hepatocellular adenoma, dosed 97 weeks, study length 105 weeks) 307 mg/kg/day; (rat, strain Charles River CD (Sprague-Dawley), females, in feed, site: liver, lesion: hepatocellular carcinoma, dosed 97 weeks, study length 105 weeks) 646 mg/kg/day; (rat, strain Charles River CD (Sprague-Dawley), females, in feed, site: mammary gland, lesion: adenoma, dosed 97 weeks, study length 105 weeks) 3010 mg/kg/day; (rat, strain Charles River CD (Sprague-Dawley), females, in feed, site: mammary gland, lesion: carcinoma, dosed 97 weeks, study length 105 weeks) 669 mg/kg/day; (rat, strain Charles River CD (Sprague-Dawley), females, in feed, site: thyroid gland, lesion: adenoma, dosed 97 weeks, study length 105 weeks) 9710 mg/kg/day; (rat, strain Charles River CD (Sprague-Dawley), males, in feed, site: liver, lesion: hepatocellular adenoma, dosed 97 weeks, study length 105 weeks) 2530 mg/kg/day. Moreover, the TD50 (rat, strain Charles River CD (Sprague-Dawley), males, in feed, site: liver, lesion: hepatocellular carcinoma, dosed 97 weeks, study length 105 weeks) is 4160 mg/kg/day; the TD50 (rat, strain Charles River CD (Sprague-Dawley), males, in feed, site: thyroid gland, lesion: adenoma, dosed 97 weeks, study length 105 weeks) is 11000 mg/kg/day; the TD50 (rat, strain Charles River CD (Sprague-Dawley), males, in feed, site: thyroid gland, lesion: carcinoma, dosed 97 weeks, study length 105 weeks) came to 12400 mg/kg/day.

With `CCCCCCCCCCCC[N+](C)(C)[O-]`, the carcinogen call (rat, strain Fischer 344, females, in drinking water, site: liver, lesion: neoplastic nodule, dosed 93 weeks, study length 128 weeks) was “negative (inactive)”. The TD50 runs as follows: (rat, strain Fischer 344, males, in drinking water, site: liver, lesion: hepatocellular carcinoma, dosed 93 weeks, study length 128 weeks) 519 mg/kg/day (inactive); (rat, strain Fischer 344, males, in drinking water, site: liver, lesion: neoplastic nodule, dosed 93 weeks, study length 128 weeks) 496 mg/kg/day (inactive); (rat, strain Fischer 344, males, in drinking water, site: liver, lesion: several types, types named in the paper, dosed 93 weeks, study length 128 weeks) 231 mg/kg/day (inactive).

In the case of `OC[C@H]1OC(OC[C@H]2O[C@H](O)[C@H](O)[C@@H](O)[C@@H]2O)[C@H](O)[C@@H](O)[C@@H]1O` (some centres undefined), the carcinogen call (mouse, strain Charles River CD1, females, in feed, site: liver, lesion: one or several types, types not named, dosed 80 weeks, study length 80 weeks) is “negative (inactive)”. Further, for the setting “mouse, strain Charles River CD1, males, in feed, site: liver, lesion: hepatocellular adenoma, dosed 80 weeks, study length 80 weeks”, the TD50 was 46300 mg/kg/day (inactive).

Turning to `C1N2CN3CN1CN(C2)C3`, the carcinogen call was “negative (inactive)” (mouse, strain C3Hf/Dp, females, in drinking water, site: any site (literature study), lesion: several types, types named in the paper, dosed 60 weeks, study length 105 weeks); “negative (inactive)” (mouse, strain C3Hf/Dp, females, in drinking water, site: liver, lesion: hepatoma, dosed 60 weeks, study length 105 weeks); “negative (inactive)” (mouse, strain C3Hf/Dp, females, in drinking water, site: lung, lesion: adenoma, dosed 60 weeks, study length 105 weeks); “negative (inactive)” (mouse, strain C3Hf/Dp, males, in drinking water, site: any site (literature study), lesion: several types, types named in the paper, dosed 60 weeks, study length 105 weeks); “negative (inactive)” (mouse, strain C3Hf/Dp, males, in drinking water, site: liver, lesion: hepatoma, dosed 60 weeks, study length 105 weeks); “negative (inactive)” (mouse, strain CTM, females, in drinking water, site: liver, lesion: angioma, dosed 50 weeks, study length 100 weeks). The carcinogen call is, setting by setting: (mouse, strain CTM, females, in drinking water, site: lung, lesion: adenoma, dosed 50 weeks, study length 100 weeks) “negative (inactive)”; (mouse, strain CTM, males, in drinking water, site: any site (literature study), lesion: several types, types named in the paper, dosed 50 weeks, study length 100 weeks) “negative (inactive)”; (mouse, strain CTM, males, in drinking water, site: liver, lesion: angioma, dosed 50 weeks, study length 100 weeks) “negative (inactive)”; (mouse, strain CTM, males, in drinking water, site: lung, lesion: adenoma, dosed 50 weeks, study length 100 weeks) “negative (inactive)”; (mouse, strain SWR, females, in drinking water, site: any site (literature study), lesion: several types, types named in the paper, dosed 60 weeks, study length 103 weeks) “negative (inactive)”; (mouse, strain SWR, females, in drinking water, site: liver, lesion: one or several types, types not named, dosed 60 weeks, study length 103 weeks) “negative (inactive)”. Besides, the carcinogen call is “negative (inactive)” (mouse, strain SWR, females, in drinking water, site: lung, lesion: adenoma, dosed 60 weeks, study length 103 weeks); “negative (inactive)” (mouse, strain SWR, males, in drinking water, site: any site (literature study), lesion: several types, types named in the paper, dosed 60 weeks, study length 103 weeks); “negative (inactive)” (mouse, strain SWR, males, in drinking water, site: liver, lesion: angioma, dosed 60 weeks, study length 103 weeks); “negative (inactive)” (mouse, strain SWR, males, in drinking water, site: lung, lesion: adenoma, dosed 60 weeks, study length 103 weeks); “negative (inactive)” (rat, strain Wistar, females, in drinking water, site: any site (literature study), lesion: several types, types named in the paper, dosed 104 weeks, study length 146 weeks); “negative (inactive)” (rat, strain Wistar, females, in drinking water, site: liver, lesion: one or several types, types not named, dosed 104 weeks, study length 146 weeks). Besides, the carcinogen call was “negative (inactive)” (rat, strain Wistar, males, in drinking water, site: any site (literature study), lesion: several types, types named in the paper, dosed 104 weeks, study length 146 weeks) and “negative (inactive)” (rat, strain Wistar, males, in drinking water, site: liver, lesion: liver-cell carcinoma, dosed 104 weeks, study length 146 weeks). Also, the TD50 is, setting by setting: (mouse, strain C3Hf/Dp, females, in drinking water, site: liver, lesion: angioma, dosed 60 weeks, study length 105 weeks) 51900 mg/kg/day (inactive); (mouse, strain C3Hf/Dp, males, in drinking water, site: liver, lesion: angioma, dosed 60 weeks, study length 105 weeks) 32300 mg/kg/day (inactive); (mouse, strain C3Hf/Dp, males, in drinking water, site: lung, lesion: adenoma, dosed 60 weeks, study length 105 weeks) 293000 mg/kg/day (inactive); (mouse, strain CTM, females, in drinking water, site: Harderian gland, lesion: one or several types, types not named, dosed 50 weeks, study length 100 weeks) 26300 mg/kg/day (inactive); (mouse, strain CTM, females, in drinking water, site: any site (literature study), lesion: several types, types named in the paper, dosed 50 weeks, study length 100 weeks) 11600 mg/kg/day (inactive); (mouse, strain CTM, females, in drinking water, site: several sites, sites named in the paper, lesion: one or several types, types not named, dosed 50 weeks, study length 100 weeks) 20900 mg/kg/day (inactive).

What is called TD50 is the dose at which the toxic effect under study appears in half of the subjects.
